Laboratory results from patent US20240124488A1, “AZA-CRYPTOPHANES, PROCESSES FOR PREPARATION THEREOF, AND THEIR USES” (UNIVERSITE DE CAEN NORMANDIE, priority 2021, published 2024).
Values joined by “and” are separate entries in the source; they are usually repeats but may differ in a detail not shown here. Equal values may be shown once. Read-outs that look alike come from different tables or passages of the source. One block for each molecule: values may come before it.

Key:
[1] = Cavity size by X-ray crystallography; format: physicochemical; settings: crystals by slow evaporation in dichloromethane at 4° C.
Description: Crystallographic data of both anti and syn cryptophanes 1N were obtained by slow evaporation in dichloromethane at 4° C. The anti compound has a cavity size of 137.0 Å^3 and the syn compound has a cavity size of 121.4 Å^3, both larger than the size of the prior art cryptophane C (114.5 Å^3).
Anti cryptophanes 1N crystals were also obtained by slow evaporation in anisole, which is too large to enter the cage. This enabled to visualise the conformation of the cryptophane 1N and the size of its cavity without caged compound. The size of the empty cavity is between 85.4 and 86.8 Å^3.

[2] = prior art cryptophane; cited from earlier work
[3] = Experimental solubility in organic solvents
Description: (§1) Experimental Solubility of Cryptophane a (Conventional Cryptophane Outside the Invention)
(§2) Experimental Solubility of Cryptophane-1N

[4] = Encapsulation efficiency by UV spectrophotometry; format: physicochemical
Description: Cryptophanes concentration were defined using spectrophotometry (Infinite M200, Tecan, Mannedorf, Switzerland) by determining absorbance spectrum of Crytophane in solution in MeOH.
The encapsulation efficiency (EE) was determined after filtration through 0.2 μm syringe filters (Minisart® Syringe Filter, Sartorius, Goettingen, Germany) to remove unentrapped cryptophanes. Then, these samples were diluted in methanol (1/100, v/v) and the concentration of cryptophane was determined by spectrophotometry at 288 nm. The EE was determined in duplicate and calculated as follows: […]
A UV calibration curve for each of the compounds was carried out (see protocol above) using a stock solution of Cr1N in acetonitrile (1.05 mg/mL) and a stock solution of cryptophane A in DMSO (1.85 mg/mL), solutions subsequently diluted in methanol.
The batch of nanoemulsions loaded with Cr1N was diluted 100-fold in methanol. Under these conditions, it was confirmed by DLS that the nanoemulsions were destroyed. The amount of cryptophane in this sample was then determined. The concentration of cryptophane in the sample was 28 μM, i.e. an encapsulation efficiency of 60%.

[5] = 129Xe NMR xenon encapsulation; format: binding; settings: 5 bars, CDCl3, 278 K
Text: FIG. 1 illustrates the ^129Xe NMR spectrum (5 bars, CDCl3) of cryptophane-1N 12.
^129Xe NMR (5 bars, CDCl3): illustrated in FIG. 1.

physchem = settings: organic solvent or mixture
Description: as §1, §2

cavity size [1]: 121.4 Å^3
Molecule: COc1cc2c3cc1OCCOc1ccc4c(c1)Cc1ccc5cc1Nc1ccc(cc1C4)OCCOc1cc(c(cc1OC)Cc1cc(c(OC)cc1C3)OCCO5)C2 [Cryptophane-1N Syn]

Molecule: cryptophane C
cavity size [2]: 114.5 Å^3

Experimental solubility in MeCN [3]: very poorly soluble
Molecule: COc1cc2c3cc1OCCOc1cc4c(cc1OC)Cc1cc5c(OC)cc1Cc1cc(c(OC)cc1C4)OCCOc1cc(c(cc1OC)C3)Cc1cc(OC)c(cc1C2)OCCO5 [Cryptophane A]

cavity size [1]: 137.0 Å^3 | amount loaded into nanoemulsions relative to cryptophane A [4]: more than twice as much | solubility (physchem; Experimental solubility in CHCl3): > 8.27 mM | solubility (physchem; Experimental solubility in DMSO): > 59500 µg/mL and > 73800 µM | solubility (physchem; Experimental solubility in MeCN): > 2.23 mM
Molecule: COc1cc2c3cc1OCCOc1ccc4c(c1)Cc1ccc5cc1Nc1ccc(cc1C4)OCCOc1cc(c(cc1OC)C3)Cc1cc(OC)c(cc1C2)OCCO5 [Cryptophane-1N]
Xenon encapsulation [5]: successfully encapsulate xenon
